“Also recorded” adds a separate entry of the source. Where two headings read alike, the source gives them in different places.
Columns and labels:
[1] = target: human GABAA receptor α2/β2/γ2 (Homo sapiens, UniProt P18507+P47869); assay: SyncroPatch platform, PAM mode, GABAA α2/β2/γ2
[2] = Multiple ascending dose study, plasma pharmacokinetics; format: in vivo, human (healthy volunteers); details: for AUC(0-t) at 24 h / Cmax at 24 h / AUC tau / Cmax at 288 h / half-life: human, plasma, po
Description: A clinical study was developed to evaluate safety, tolerability, pharmacokinetics, and pharmacodynamics of Compound 1 at plasma steady-state in 40 healthy human volunteers. Compound 1 (provided as Compound 1 phosphate) was administered to participants as multiple ascending doses of 0.5 mg (N=6), 1.0 mg (N=6), 1.5 mg (N=6), 2.0 mg (N=6), or 5.0 mg (N=6) once daily (QD) for 12 days.
Blood samples were collected, and plasma concentrations were measured using a validated high performance liquid chromatography/liquid chromatography-mass spectrometry/mass spectrometry method. The PK parameters assessed included Cmax, Tmax, AUC from administration to the end of dosing (AUC0-t), AUC0-24, AUC0-inf, t1/2, terminal rate constant (λz), apparent total clearance of the drug from plasma (CL/F), and apparent volume of distribution during terminal phase after non-intravenous administration (Vz/F).
The plasma concentration data for Compound 1 were summarized by dose level and the planned sampling time points using descriptive statistics (n, SD, median, minimum, maximum, geometric mean, and coefficient of variance (CV %) for the geometric mean) for the PK Analysis Set.
Specifically, samples for PK analyses were taken on Day 1 and Day 12 pre-dose, 0.5, 1, 1.5, 3, 6, 8, 10, and 12 h post-dose, with additional samples taken on every dosing Day (24 hours after the previous day's dose) and 24, 72, 168, and 336 h after last dosing on Day 12. All individual Compound 1 concentrations were above the LLOQ of 0.0500 ng/mL at 0.5 h post-dose, except for 1 participant, for whom the concentration was above the LLOQ at 1 h post-dose.

[3] = 0.5 mg oral QD, Day 1, 1440 min
[4] = 1.0 mg oral QD, Day 1, 1440 min
[5] = 1.5 mg oral QD, Day 1, 1440 min
[6] = 2.0 mg oral QD, Day 1, 1440 min

Sequence of human GABAA receptor α2/β2/γ2 (P47869 29-451): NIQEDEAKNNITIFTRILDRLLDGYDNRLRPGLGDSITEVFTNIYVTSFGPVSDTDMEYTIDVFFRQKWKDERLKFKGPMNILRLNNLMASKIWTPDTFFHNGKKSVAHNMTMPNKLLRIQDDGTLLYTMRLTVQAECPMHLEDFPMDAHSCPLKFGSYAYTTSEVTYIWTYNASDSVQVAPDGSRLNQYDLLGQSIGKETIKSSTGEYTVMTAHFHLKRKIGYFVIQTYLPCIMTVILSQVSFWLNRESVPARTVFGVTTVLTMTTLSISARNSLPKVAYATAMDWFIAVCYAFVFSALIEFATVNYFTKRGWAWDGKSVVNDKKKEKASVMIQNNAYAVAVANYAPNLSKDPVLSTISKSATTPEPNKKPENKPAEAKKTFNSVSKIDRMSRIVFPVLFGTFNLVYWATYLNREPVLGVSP
Sequence of human GABAA receptor α2/β2/γ2 (P18507 40-475): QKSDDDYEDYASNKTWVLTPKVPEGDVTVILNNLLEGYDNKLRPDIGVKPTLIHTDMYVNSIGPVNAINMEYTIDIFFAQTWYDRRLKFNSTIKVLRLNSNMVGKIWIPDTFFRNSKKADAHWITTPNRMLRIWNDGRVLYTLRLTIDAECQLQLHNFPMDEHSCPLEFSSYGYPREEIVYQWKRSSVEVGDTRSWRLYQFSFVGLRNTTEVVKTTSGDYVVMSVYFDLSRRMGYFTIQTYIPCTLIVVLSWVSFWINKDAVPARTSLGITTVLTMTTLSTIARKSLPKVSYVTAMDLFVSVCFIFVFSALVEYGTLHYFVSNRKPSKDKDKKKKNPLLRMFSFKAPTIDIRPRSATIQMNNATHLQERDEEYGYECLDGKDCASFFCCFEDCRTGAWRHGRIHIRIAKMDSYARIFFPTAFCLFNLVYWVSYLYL
Sequence of human GABAA receptor α2/β2/γ2 (P47870 25-512 partner limits assumed): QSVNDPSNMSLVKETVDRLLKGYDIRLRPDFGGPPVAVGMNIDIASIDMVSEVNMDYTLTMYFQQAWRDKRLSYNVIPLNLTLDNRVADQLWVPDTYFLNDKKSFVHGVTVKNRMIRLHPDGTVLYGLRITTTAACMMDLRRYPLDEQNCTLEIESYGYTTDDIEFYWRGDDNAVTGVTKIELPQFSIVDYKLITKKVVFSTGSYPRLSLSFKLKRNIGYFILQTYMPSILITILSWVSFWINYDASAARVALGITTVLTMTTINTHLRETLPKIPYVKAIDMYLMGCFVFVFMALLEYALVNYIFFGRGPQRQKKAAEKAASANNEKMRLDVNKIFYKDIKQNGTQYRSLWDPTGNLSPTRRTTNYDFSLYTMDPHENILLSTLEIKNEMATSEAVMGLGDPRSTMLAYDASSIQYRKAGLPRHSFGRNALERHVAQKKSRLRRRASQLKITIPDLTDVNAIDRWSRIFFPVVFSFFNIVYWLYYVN

For CC(C)(O)c1cnn2c(-c3ccc(F)c(-c4c(F)cccc4C#N)c3)cnc2n1 [Compound 1, 2′,6-difluoro-5′-(3-(2-hydroxypropan-2-yl)imidazo[1,2-b][1,2,4]triazin-7-yl)-[1,1′-biphenyl]-2-carbonitrile], the EC50 [1] was 0.8 nM, the Emax [1] was 50% and the “AUC0-24 (mean)” value [2, 3] was 52.56 ng·h/mL. For the same molecule, the “Cmax (mean)” value [2, 3] was 4.615 ng/mL, the “AUCtau (mean)” value ([2]; 0.5 mg oral QD, Day 12) was 197.54 ng·h/mL and the “t1/2 (mean)” value ([2]; 0.5 mg oral QD, Day 12) was 65.610 h. For the same molecule, the “Cmax (mean)” value ([2]; 0.5 mg oral QD, Day 12, 17280 min) was 11.660 ng/mL, the “AUC0-24 (mean)” value [2, 4] was 117.81 ng·h/mL and the “Cmax (mean)” value [2, 4] was 8.497 ng/mL. For the same molecule, the “AUCtau (mean)” value ([2]; 1.0 mg oral QD, Day 12) was 410.07 ng·h/mL, the “t1/2 (mean)” value ([2]; 1.0 mg oral QD, Day 12) was 60.876 h and the “Cmax (mean)” value ([2]; 1.0 mg oral QD, Day 12, 17280 min) was 23.333 ng/mL. The “AUC0-24 (mean)” value [2, 5] was 216.99 ng·h/mL, the “Cmax (mean)” value [2, 5] was 18.833 ng/mL and the “AUCtau (mean)” value ([2]; 1.5 mg oral QD, Day 12) was 705.65 ng·h/mL. For the same molecule, the “t1/2 (mean)” value ([2]; 1.5 mg oral QD, Day 12) was 50.526 h, the “AUC0-24 (mean)” value [2, 6] was 243.73 ng·h/mL and the “Cmax (mean)” value [2, 6] was 19.633 ng/mL. For the same molecule, the “AUCtau (mean)” value ([2]; 2.0 mg oral QD, Day 12) was 873.17 ng·h/mL, the “t1/2 (mean)” value ([2]; 2.0 mg oral QD, Day 12) was 61.167 h and the “Cmax (mean)” value ([2]; 2.0 mg oral QD, Day 12, 17280 min) was 49.817 ng/mL. The “AUC0-24 (mean)” value ([2]; 5.0 mg oral QD, Day 1, 1440 min) was 641.92 ng·h/mL, the “t1/2 (mean)” value ([2]; 5.0 mg oral QD, Day 12) was 38.695 h and the “trend of t1/2 or λz with increasing dose” value ([2]; 0.5-5.0 mg oral QD) was “no trend towards change in t1/2 or λz with increasing dose”. For the same molecule, the “dose proportionality of exposure” value ([2]; Cmax and AUC, 0.5-5.0 mg oral QD) was “generally increased dose- and concentration-proportionally; also recorded: Dose-proportional PK were confirmed over the investigated dose range”, the “median time of the last quantifiable concentration” value ([2]; all cohorts, Day 1) was “approximately 24 h” and the “linearity of dose normalized Cmax and AUC0-24” value ([2]; arguable exception 1.5 mg) was “consistent with linear kinetics”. The AUC(0-t) at 24 h ([2]; 0.5 mg, 0.5 mg oral QD, Day 1, read-out: AUC0-24 (mean)) was 53 ± 7 ng·h/mL, the AUC(0-t) at 24 h ([2]; 0.5 mg, 0.5 mg oral QD, Day 1, read-out: AUC0-24 (median)) was 54.8 ng·h/mL and the Cmax at 24 h ([2]; 0.5 mg, 0.5 mg oral QD, Day 1, read-out: Cmax (mean)) was 4.6 ± 2 ng/mL. For the same molecule, the Cmax at 24 h ([2]; 0.5 mg, 0.5 mg oral QD, Day 1, read-out: Cmax (median)) was 4.58 ng/mL, the AUC tau ([2]; 0.5 mg, 0.5 mg oral QD, Day 12, read-out: AUCtau (mean)) was 198 ± 51 ng·h/mL and the AUC tau ([2]; 0.5 mg, 0.5 mg oral QD, Day 12, read-out: AUCtau (median)) was 201 ng·h/mL. The Cmax at 288 h ([2]; 0.5 mg, 0.5 mg oral QD, Day 12, read-out: Cmax (mean)) was 11.7 ± 4 ng/mL, the Cmax at 288 h ([2]; 0.5 mg, 0.5 mg oral QD, Day 12, read-out: Cmax (median)) was 11.6 ng/mL and the half-life ([2]; 0.5 mg, 0.5 mg oral QD, Day 12, read-out: t1/2 (mean) (converted)) was 66 ± 24 h. The half-life ([2]; 0.5 mg, 0.5 mg oral QD, Day 12, read-out: t1/2 (median) (converted)) was 64.3 h, the AUC(0-t) at 24 h ([2]; 1 mg, 1.0 mg oral QD, Day 1, read-out: AUC0-24 (mean)) was 118 ± 27 ng·h/mL and the AUC(0-t) at 24 h ([2]; 1 mg, 1.0 mg oral QD, Day 1, read-out: AUC0-24 (median)) was 117 ng·h/mL. It also gave a Cmax at 24 h ([2]; 1 mg, 1.0 mg oral QD, Day 1, read-out: Cmax (mean)) of 8.5 ± 3 ng/mL, a Cmax at 24 h ([2]; 1 mg, 1.0 mg oral QD, Day 1, read-out: Cmax (median)) of 8.99 ng/mL and an AUC tau ([2]; 1 mg, 1.0 mg oral QD, Day 12, read-out: AUCtau (mean)) of 410 ± 115 ng·h/mL. It also gave an AUC tau ([2]; 1 mg, 1.0 mg oral QD, Day 12, read-out: AUCtau (median)) of 416 ng·h/mL, a Cmax at 288 h ([2]; 1 mg, 1.0 mg oral QD, Day 12, read-out: Cmax (mean)) of 23.3 ± 5 ng/mL and a Cmax at 288 h ([2]; 1 mg, 1.0 mg oral QD, Day 12, read-out: Cmax (median)) of 22.6 ng/mL. The half-life ([2]; 1 mg, 1.0 mg oral QD, Day 12, read-out: t1/2 (mean) (converted)) was 61 ± 29 h, the half-life ([2]; 1 mg, 1.0 mg oral QD, Day 12, read-out: t1/2 (median) (converted)) was 58.2 h and the AUC(0-t) at 24 h ([2]; 1.5 mg, 1.5 mg oral QD, Day 1, read-out: AUC0-24 (mean)) was 217 ± 48 ng·h/mL. The AUC(0-t) at 24 h ([2]; 1.5 mg, 1.5 mg oral QD, Day 1, read-out: AUC0-24 (median)) was 227 ng·h/mL and the Cmax at 24 h ([2]; 1.5 mg, 1.5 mg oral QD, Day 1, read-out: Cmax (mean)) was 18.8 ± 7 ng/mL.

Reference: patent publication US20260345621A1, “GABAA RECEPTOR MODULATORS AND USES THEREOF” (Engrail Therapeutics, Inc., priority 2022, published 2026)
